The results in this text go back to ChEMBL document CHEMBL1128658, “Isolation, structure determination and squalene synthase activity of L-731,120 and L-731,128, alkyl citrate analogs of zaragozic acids A and B” (Bioorg Med Chem Lett, 1995).

In experiment [1] the target is T1, Squalene synthase (Rattus norvegicus, UniProt Q02769).
T1 sequence (Q02769 whole entry): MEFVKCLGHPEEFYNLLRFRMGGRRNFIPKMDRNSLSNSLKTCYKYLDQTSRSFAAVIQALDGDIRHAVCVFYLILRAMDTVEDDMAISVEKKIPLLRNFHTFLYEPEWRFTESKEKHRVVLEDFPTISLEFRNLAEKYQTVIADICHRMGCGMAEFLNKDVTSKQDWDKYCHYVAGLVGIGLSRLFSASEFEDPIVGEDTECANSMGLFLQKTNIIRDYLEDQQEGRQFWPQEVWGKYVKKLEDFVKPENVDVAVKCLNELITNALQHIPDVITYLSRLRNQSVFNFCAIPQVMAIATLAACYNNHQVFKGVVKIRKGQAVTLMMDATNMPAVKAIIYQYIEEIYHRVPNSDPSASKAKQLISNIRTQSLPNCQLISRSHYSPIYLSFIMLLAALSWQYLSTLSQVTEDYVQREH
Nature of the experiment: In vitro inhibitory activity against rat squalene synthase.

Experiment [2] deals with Mus musculus. The experiment is described as follows: In vivo inhibitory activity against mouse hepatic cholesterol synthesis administered orally at 48 mpk. The class given is functional. Conditions: po.
The species named for experiment [3] is Mus musculus. Nature of the experiment: animal or person. In kind it is functional. Conditions: po.
Description: In vivo inhibitory activity against mouse hepatic cholesterol synthesis administered orally at 24 mpk
Experiment [4] deals with Mus musculus. Nature of the experiment: In vivo inhibitory activity against mouse hepatic cholesterol synthesis administered orally at 40 mpk. In kind it is functional. Particulars: po.
For experiment [5], the system named is Mus musculus. Nature of the experiment: In vivo inhibitory activity against mouse hepatic cholesterol synthesis administered subcutaneously. In kind it is functional. Conditions: sc.

With `CCCCCCCCCCCCCCCCC(C(=O)O)C(O)(CC(=O)O)C(=O)O` (stereo not drawn), half-maximal inhibition in experiment [1] (IC50) was put at 9 µM. Moreover, the inhibition in vivo (in general, the percentage by which the read-out fell short of the control) at 48 mg/kg in experiment [2] is 0%.
Compound `C=C(CCC12OC(C(=O)O)C(O)(C(=O)O)C(C(=O)O)(O1)[C@H](O)[C@H]2O)[C@@H](OC(C)=O)[C@H](C)Cc1ccccc1` (stereo partly drawn) came in with an inhibition in vivo at 24 mg/kg in experiment [3] of 34%.
Compound `C=C(CCC12OC(C(=O)O)C(O)(C(=O)O)C(C(=O)O)(O1)[C@H](OC(=O)/C=C/[C@@H](C)C[C@@H](C)CC)[C@H]2O)[C@@H](OC(C)=O)[C@H](C)Cc1ccccc1` (stereo partly drawn) [ZARAGOZIC ACID A] had an inhibition in vivo at 40 mg/kg in experiment [4] of 20%. Moreover, the median effective dose (ED50) – broadly, the midpoint of the dose-response relation – in experiment [5] was 0.2 mg/kg.
For `C/C(=C\C(C)Cc1ccccc1)CCCCCC(C(=O)O)C(O)(CC(=O)O)C(=O)O` (stereo not drawn), the half-maximal inhibitory concentration (IC50) (in general, the concentration at which inhibition is half-maximal) in experiment [1] was 0.26 µM. Moreover, the 50% effect level in experiment [5] (ED50) was put at a dose of 15 mg/kg. For the same compound, the inhibition in vivo at 48 mg/kg in experiment [2] amounted to 0%.
